From PubChem BioAssay AID2060899 (Molecular Pharmacology Branch, DTP, NCI, 2025)

Test system: 565726-208-R1-J5-PDC complex spheroids, growth inhibition
Experiment: Anticancer human tumor 565726-208-R1-J5-PDC patient-derived pancreatic adenocarcinoma cell line growth inhibition [RAS]
Details: for IC50: curve of first compound; for viability, T/C: stronger effect = lower value
In short: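 Multi-cell-type spheroids: tumor cells plus HUVEC endothelial cells and mesenchymal stem cells. RAS-pathway inhibitors were combined with targeted agents, each dosed in half-log steps down from clinical Cmax, or from 10 microM when Cmax was unknown.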
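Further: spheroids exposed to compounds for seven days before readout.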
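Wherever viability, T/C is given: 100% = DMSO vehicle control viability.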

## Cc1nc(N2CCC3(CC2)COC(C)C3N)c(CO)nc1Sc1ccnc(N)c1Cl (centres undefined) + CCn1c(-c2cc(N3CCN(C)CC3)cnc2C(C)OC)c2c3cc(ccc31)-c1csc(n1)CC(NC(=O)C1CC1C)C(=O)N1CCCC(N1)C(=O)OCC(C)(C)C2
Second compound 0.000949 µM
  IC50: 204 nM
Second compound 0.003 µM
  IC50: 38.7 nM
Second compound 0.00949 µM
  IC50: < 31.6 nM
Second compound 0.03 µM
  IC50: < 31.6 nM
Second compound 0.0949 µM
  IC50: < 31.6 nM
Second compound 0.3 µM
  IC50: < 31.6 nM
Second compound 0.000949 µM, first compound 0.0316 µM
  viability, T/C: 63.1%
Second compound 0.000949 µM, first compound 0.1 µM
  viability, T/C: 53.6%
Second compound 0.000949 µM, first compound 0.316 µM
  viability, T/C: 48.3%
Second compound 0.000949 µM, first compound 1 µM
  viability, T/C: 39.5%
Second compound 0.000949 µM, first compound 3.16 µM
  viability, T/C: 33%
Second compound 0.000949 µM, first compound 10 µM
  viability, T/C: 28%
Second compound 0.003 µM, first compound 0.0316 µM
  viability, T/C: 51.3%
Second compound 0.003 µM, first compound 0.1 µM
  viability, T/C: 43.4%
Second compound 0.003 µM, first compound 0.316 µM
  viability, T/C: 34.3%
Second compound 0.003 µM, first compound 1 µM
  viability, T/C: 27.6%
Second compound 0.003 µM, first compound 3.16 µM
  viability, T/C: 29.1%
Second compound 0.003 µM, first compound 10 µM
  viability, T/C: 22%
Second compound 0.00949 µM, first compound 0.0316 µM
  viability, T/C: 40.5%
Second compound 0.00949 µM, first compound 0.1 µM
  viability, T/C: 34.8%
Second compound 0.00949 µM, first compound 0.316 µM
  viability, T/C: 26.1%
Second compound 0.00949 µM, first compound 1 µM
  viability, T/C: 22.2%
Second compound 0.00949 µM, first compound 3.16 µM
  viability, T/C: 20.9%
Second compound 0.00949 µM, first compound 10 µM
  viability, T/C: 17.1%
Second compound 0.03 µM, first compound 0.0316 µM
  viability, T/C: 29.1%
Second compound 0.03 µM, first compound 0.1 µM
  viability, T/C: 28.4%
Second compound 0.03 µM, first compound 0.316 µM
  viability, T/C: 22.2%
Second compound 0.03 µM, first compound 1 µM
  viability, T/C: 18%
Second compound 0.03 µM, first compound 3.16 µM
  viability, T/C: 19.8%
Second compound 0.03 µM, first compound 10 µM
  viability, T/C: 16.9%
Second compound 0.0949 µM, first compound 0.0316 µM
  viability, T/C: 22.9%
Second compound 0.0949 µM, first compound 0.1 µM
  viability, T/C: 21.2%
Second compound 0.0949 µM, first compound 0.316 µM
  viability, T/C: 20.1%
Second compound 0.0949 µM, first compound 1 µM
  viability, T/C: 15.9%
Second compound 0.0949 µM, first compound 3.16 µM
  viability, T/C: 18.3%
Second compound 0.0949 µM, first compound 10 µM
  viability, T/C: 17.2%
Second compound 0.3 µM, first compound 0.0316 µM
  viability, T/C: 24.4%
Second compound 0.3 µM, first compound 0.1 µM
  viability, T/C: 20%
Second compound 0.3 µM, first compound 0.316 µM
  viability, T/C: 17%
Second compound 0.3 µM, first compound 1 µM
  viability, T/C: 13.8%
Second compound 0.3 µM, first compound 3.16 µM
  viability, T/C: 16.2%
Second compound 0.3 µM, first compound 10 µM
  viability, T/C: 15.5%

## CC(C)NCC(C(=O)N1CCN(c2ncnc3c2C(C)CC3O)CC1)c1ccc(Cl)cc1 (centres undefined) + C=CC(=O)N1CCN(c2nc(OCC3CCCN3C)nc3c(F)c(-c4nc(N)cc(C)c4C(F)(F)F)c(Cl)cc23)C(C)C1
Second compound 0.00316 µM
  IC50: > 10000 nM
Second compound 0.01 µM
  IC50: > 10000 nM
Second compound 0.0316 µM
  IC50: > 10000 nM
Second compound 0.1 µM
  IC50: > 10000 nM
Second compound 0.316 µM
  IC50: > 10000 nM
Second compound 1 µM
  IC50: > 10000 nM
Second compound 0.00316 µM, first compound 0.0316 µM
  viability, T/C: 90.5%
Second compound 0.00316 µM, first compound 0.1 µM
  viability, T/C: 152%
Second compound 0.00316 µM, first compound 0.316 µM
  viability, T/C: 89%
Second compound 0.00316 µM, first compound 1 µM
  viability, T/C: 91%
Second compound 0.00316 µM, first compound 3.16 µM
  viability, T/C: 93.3%
Second compound 0.00316 µM, first compound 10 µM
  viability, T/C: 110%
Second compound 0.01 µM, first compound 0.0316 µM
  viability, T/C: 133%
Second compound 0.01 µM, first compound 0.1 µM
  viability, T/C: 153%
Second compound 0.01 µM, first compound 0.316 µM
  viability, T/C: 91%
Second compound 0.01 µM, first compound 1 µM
  viability, T/C: 78.3%
Second compound 0.01 µM, first compound 3.16 µM
  viability, T/C: 104%
Second compound 0.01 µM, first compound 10 µM
  viability, T/C: 127%
Second compound 0.0316 µM, first compound 0.0316 µM
  viability, T/C: 125%
Second compound 0.0316 µM, first compound 0.1 µM
  viability, T/C: 160%
Second compound 0.0316 µM, first compound 0.316 µM
  viability, T/C: 90.2%
Second compound 0.0316 µM, first compound 1 µM
  viability, T/C: 89.8%
Second compound 0.0316 µM, first compound 3.16 µM
  viability, T/C: 93.5%
Second compound 0.0316 µM, first compound 10 µM
  viability, T/C: 125%
Second compound 0.1 µM, first compound 0.0316 µM
  viability, T/C: 176%
Second compound 0.1 µM, first compound 0.1 µM
  viability, T/C: 154%
Second compound 0.1 µM, first compound 0.316 µM
  viability, T/C: 93.1%
Second compound 0.1 µM, first compound 1 µM
  viability, T/C: 85.4%
Second compound 0.1 µM, first compound 3.16 µM
  viability, T/C: 80.6%
Second compound 0.1 µM, first compound 10 µM
  viability, T/C: 120%
Second compound 0.316 µM, first compound 0.0316 µM
  viability, T/C: 147%
Second compound 0.316 µM, first compound 0.1 µM
  viability, T/C: 153%
Second compound 0.316 µM, first compound 0.316 µM
  viability, T/C: 88.5%
Second compound 0.316 µM, first compound 1 µM
  viability, T/C: 96.6%
Second compound 0.316 µM, first compound 3.16 µM
  viability, T/C: 73.4%
Second compound 0.316 µM, first compound 10 µM
  viability, T/C: 118%
Second compound 1 µM, first compound 0.0316 µM
  viability, T/C: 175%
Second compound 1 µM, first compound 0.1 µM
  viability, T/C: 155%
Second compound 1 µM, first compound 0.316 µM
  viability, T/C: 130%
Second compound 1 µM, first compound 1 µM
  viability, T/C: 95.1%
Second compound 1 µM, first compound 3.16 µM
  viability, T/C: 80.7%
Second compound 1 µM, first compound 10 µM
  viability, T/C: 95.9%
